Measured values published in patent US6939879B2, “Use of R (+)-α-(2,3-dimethoxyphenyl)-1-[2-(4-fluorophenyl)ethyl]-4-piperidinemethanol for the treatment of substance induced insomnia” (Aventis Pharmaceuticals Inc., priority 1998, dated 2005).

What was measured:
[1] = tested on: patients diagnosed with schizophrenia; experiment: Insomnia and somnolence reported by patients with schizophrenia, twice daily oral dosing (Example 4B); assay type: in vivo, human
Procedure: Forty percent of the subjects receiving the 20 mg dose (2 out of 5) and sixty percent of the subjects receiving the 10 mg dose (3 out of 5) experienced mild to moderate sedation. […] The following data were reported.

healthy subjects [2] = experiment: Single oral dose in healthy subjects, sedation (Example 4A); assay type: in vivo, human
Procedure: Forty percent of the subjects receiving the 20 mg dose (2 out of 5) and sixty percent of the subjects receiving the 10 mg dose (3 out of 5) experienced mild to moderate sedation. […]

[3] = tested on: anaesthetized newborn Sprague Dawley rats; experiment: Depression of genioglossal EMG induced by L-Tryptophan and Pargyline; assay type: in vivo, rat; details: for prevention of depression of the amplitude of GG inspiratory discharges by L-Trp+Prg: five newborn rats
Procedure: (§1) Intraperitoneal application of L-Tryptophan (10 mg/kg) and Pargyline (50 mg/kg) to anaesthetized newborn rats depressed the amplitude of the inspiratory discharges of the genioglossal muscle and induced obstructive apneas (OA).
(§2) Experiments were carried out on newborn Sprague Dawley rats from Iffa Credo breeding center. The animals were anaesthetized by intraperitoneal injection of low doses of sodium pentobarbitone (7-10 mg/kg), kept lying (dorsal cubitus) on a warming blanket and were spontaneously ventilating.
(§3) The EMG activity of the genioglossal muscles and the diaphragm were recorded with fine insulated wires (bipolar recordings) inserted within the muscles, filtered (100-3,000 Hz), amplified (×5-10,000) and integrated (time constant 50 ms). The rib cage movements were recorded via a captor gently touching the lower ribs and/or the abdominal wall. The air flow changes resulting from the respiratory chest movements were recorded via a facial mask and a highly sensitive pressure recorder.
Then, the animal received an intraperitoneal injection of L-Tryptophan plus Pargyline (“L-Trp+Parg”) 10 mg/kg and 50 mg/kg, respectively, and the changes in EMG amplitudes were checked every 10 minutes and were expressed as % of control values.

[4] = tested on: anaesthetized newborn Sprague Dawley rats; experiment: Occurrence of obstructive apnea induced by L-Tryptophan and Pargyline injection; assay type: in vivo, rat
Procedure: as §1, §2, §3

healthy subjects [5] = experiment: Drowsiness in healthy subjects after oral doses (Example 4C); assay type: in vivo, human; details: for Drowsiness, % of subjects / Drowsiness, n of subjects: n = 4; for rating of the drowsiness: oral
From the text: The following data were reported.

healthy subjects [6] = experiment: Drowsiness in healthy subjects, 3-72 mg doses (Example 4D); assay type: in vivo, human
Procedure: D) In healthy subjects, the COMPOUND was administered in 3 mg (n=4), 9 mg (n=4), 18 mg (n=4), 36 mg (n=4) and 72 mg (n=4) doses along with the placebo (n=5) wherein “n” is the number of subjects.

[7] = pre-treatment 0.1 mg/kg intraperitoneal, ten newborn rats
[8] = pre-treatment 0.1 mg/kg, L-Trp+Parg 10 min later
[9] = pre-treatment 1 mg/kg, ten rats

Compound: COc1cccc([C@H](O)C2CCN(CCc3ccc(F)cc3)CC2)c1OC [COMPOUND, R-(+)-α-(2,3-Dimethoxyphenyl)-1-[2-(4-fluorophenyl)ethyl]-4-piperidinemethanol]
- Insomnia, % of subjects ([1]; 10 mg (5 mg twice daily) oral): N = 0; 0%
- Insomnia, N (number of subjects that reported the effect) ([1]; 10 mg (5 mg twice daily) oral): N = 0; 0%
- Somnolence, % of subjects ([1]; 10 mg (5 mg twice daily) oral): 20%
- Somnolence, N (number of subjects that reported the effect) ([1]; 10 mg (5 mg twice daily) oral): 3
- Insomnia, % of subjects ([1]; 20 mg (10 mg twice daily) oral): 21.4%
- Insomnia, N (number of subjects that reported the effect) ([1]; 20 mg (10 mg twice daily) oral): N = 3:
- Somnolence, % of subjects ([1]; 20 mg (10 mg twice daily) oral): 15.4%
- Somnolence, N (number of subjects that reported the effect) ([1]; 20 mg (10 mg twice daily) oral): N = 1;
- Insomnia, % of subjects ([1]; 40 mg (20 mg twice daily) oral): 23.1%
- Insomnia, N (number of subjects that reported the effect) ([1]; 40 mg (20 mg twice daily) oral): N = 3;
- Somnolence, % of subjects ([1]; 40 mg (20 mg twice daily) oral): 15.4%
- Somnolence, N (number of subjects that reported the effect) ([1]; 40 mg (20 mg twice daily) oral): N = 2;
- subjects who experienced mild to moderate sedation (healthy subjects [2]; single 10 mg oral dose): 3 out of 5
- subjects who experienced mild to moderate sedation (healthy subjects [2]; single 20 mg oral dose): 2 out of 5
- depression of the mean GG discharge after L-Trp+Parg injection [3, 7]: 30-50%
- prevention of depression of genioglossal (GG) discharge induced by L-Trp+Parg [3, 7]: did not prevent
- prevention of depression of genioglossal (GG) discharge induced by L-Trp+Parg ([3]; pre-treatment 1 mg/kg intraperitoneal, ten newborn rats): efficient in preventing the GG depression
- prevention of depression of genioglossal (GG) discharge induced by L-Trp+Parg ([3]; pre-treatment 3 mg/kg intraperitoneal, ten newborn rats): confirmed the efficiency
- animals that eventually died of respiratory distress [4, 8]: 4 of the 10
- newborn rats in which L-Trp+Parg injection induced OAs [4, 8]: 9 of 10
- newborn rats that did not present short lasting OAs at all ([4]; pre-treatment 1 mg/kg): Five out of ten
- newborn rats which displayed OAs ([4]; pre-treatment 1 mg/kg): 5 of 10
- animals with infrequent OAs (less than 5 short lasting OAs in 60 minutes) ([4]; pre-treatment 1 mg/kg, among the 5 of 10 with OAs): 2
- peak frequency of occurrence of short lasting OAs (mean curve) ([4]; pre-treatment 1 mg/kg, between 20-40 min after the injection, significantly less than in the 0.1 mg/kg sample): 4 OAs per 10 minute period
- newborn rats with long lasting OAs [4, 9]: one
- survival to L-Trp+Parg injection [4, 9]: all animals survived
- treated rats with a total of less than 3 short lasting OAs ([4]; pre-treatment 3 mg/kg): 3 of 10
- treated rats with frequent short lasting OAs ([4]; pre-treatment 3 mg/kg): 2 of 10
- treated rats with no short lasting OAs ([4]; pre-treatment 3 mg/kg): 5 of 10
- survival to L-Trp+Parg injection ([4]; pre-treatment 3 mg/kg, ten rats): all survived
- Drowsiness, % of subjects (healthy subjects [5]; 9 mg oral): 50%
- Drowsiness, n of subjects (healthy subjects [5]; 9 mg oral): n = 2
- Drowsiness, % of subjects (healthy subjects [5]; 18 mg oral): 100%
- Drowsiness, n of subjects (healthy subjects [5]; 18 mg oral): n = 4
- Drowsiness, % of subjects (healthy subjects [5]; 36 mg oral): 100%
- Drowsiness, n of subjects (healthy subjects [5]; 36 mg oral): n = 4
- rating of the drowsiness (healthy subjects [5]; 72 mg and above): moderate to severe
- Drowsiness, % of subjects (healthy subjects [5]; 72 mg oral): 75%
- Drowsiness, n of subjects (healthy subjects [5]; 72 mg oral): n = 3
- Drowsiness, % of subjects (healthy subjects [5]; 108 mg oral): 100%
- Drowsiness, n of subjects (healthy subjects [5]; 108 mg oral): n = 4
- Drowsiness, % of subjects (healthy subjects [5]; 138 mg oral): 100%
- Drowsiness, n of subjects (healthy subjects [5]; 138 mg oral): n = 4
- rating of the drowsiness (healthy subjects [5]; doses below 72 mg): mild or moderate
- drowsiness reported (healthy subjects [6]; 3 mg, 9 mg, 18 mg, 36 mg doses (n=4 each)): Only the group receiving the 72 mg dose reported drowsiness
- number of subjects that reported drowsiness (healthy subjects [6]; 72 mg dose (n=4)): 3

Compound: Cn1c(=O)c2[nH]cnc2n(C)c1=O [theophylline, reference compound]
- prevention of depression of the amplitude of GG inspiratory discharges by L-Trp+Prg ([3]; pre-treatment 10 mg/kg): not prevented
- prevention of depression of the amplitude of GG inspiratory discharges by L-Trp+Prg ([3]; pre-treatment 30 mg/kg): not prevented
- prevention of induction of OAs after L-Trp+Prg injection ([4]; pre-treatment 10 mg/kg): not prevented
- prevention of induction of OAs after L-Trp+Prg injection ([4]; pre-treatment 30 mg/kg): not prevented
